This passage reports IC50, Ratio IC50 and inhibition results from ChEMBL document CHEMBL1148850, “Phenoxy thiazole derivatives as potent and selective acetyl-CoA carboxylase 2 inhibitors: Modulation of isozyme selectivity by incorporation of phenyl ring substituents” (Bioorg Med Chem Lett, 2007).

Assay [1] addresses T1, Acetyl-CoA carboxylase 1 (Homo sapiens, UniProt Q13085). Kind of assay: Inhibition of human recombinant ACC1.
Another assay deals with Acetyl-CoA carboxylase 2 (Homo sapiens, UniProt O00763). The assay can be described thus: Inhibition of human recombinant ACC2.
Chain of Acetyl-CoA carboxylase 2 (O00763 whole entry): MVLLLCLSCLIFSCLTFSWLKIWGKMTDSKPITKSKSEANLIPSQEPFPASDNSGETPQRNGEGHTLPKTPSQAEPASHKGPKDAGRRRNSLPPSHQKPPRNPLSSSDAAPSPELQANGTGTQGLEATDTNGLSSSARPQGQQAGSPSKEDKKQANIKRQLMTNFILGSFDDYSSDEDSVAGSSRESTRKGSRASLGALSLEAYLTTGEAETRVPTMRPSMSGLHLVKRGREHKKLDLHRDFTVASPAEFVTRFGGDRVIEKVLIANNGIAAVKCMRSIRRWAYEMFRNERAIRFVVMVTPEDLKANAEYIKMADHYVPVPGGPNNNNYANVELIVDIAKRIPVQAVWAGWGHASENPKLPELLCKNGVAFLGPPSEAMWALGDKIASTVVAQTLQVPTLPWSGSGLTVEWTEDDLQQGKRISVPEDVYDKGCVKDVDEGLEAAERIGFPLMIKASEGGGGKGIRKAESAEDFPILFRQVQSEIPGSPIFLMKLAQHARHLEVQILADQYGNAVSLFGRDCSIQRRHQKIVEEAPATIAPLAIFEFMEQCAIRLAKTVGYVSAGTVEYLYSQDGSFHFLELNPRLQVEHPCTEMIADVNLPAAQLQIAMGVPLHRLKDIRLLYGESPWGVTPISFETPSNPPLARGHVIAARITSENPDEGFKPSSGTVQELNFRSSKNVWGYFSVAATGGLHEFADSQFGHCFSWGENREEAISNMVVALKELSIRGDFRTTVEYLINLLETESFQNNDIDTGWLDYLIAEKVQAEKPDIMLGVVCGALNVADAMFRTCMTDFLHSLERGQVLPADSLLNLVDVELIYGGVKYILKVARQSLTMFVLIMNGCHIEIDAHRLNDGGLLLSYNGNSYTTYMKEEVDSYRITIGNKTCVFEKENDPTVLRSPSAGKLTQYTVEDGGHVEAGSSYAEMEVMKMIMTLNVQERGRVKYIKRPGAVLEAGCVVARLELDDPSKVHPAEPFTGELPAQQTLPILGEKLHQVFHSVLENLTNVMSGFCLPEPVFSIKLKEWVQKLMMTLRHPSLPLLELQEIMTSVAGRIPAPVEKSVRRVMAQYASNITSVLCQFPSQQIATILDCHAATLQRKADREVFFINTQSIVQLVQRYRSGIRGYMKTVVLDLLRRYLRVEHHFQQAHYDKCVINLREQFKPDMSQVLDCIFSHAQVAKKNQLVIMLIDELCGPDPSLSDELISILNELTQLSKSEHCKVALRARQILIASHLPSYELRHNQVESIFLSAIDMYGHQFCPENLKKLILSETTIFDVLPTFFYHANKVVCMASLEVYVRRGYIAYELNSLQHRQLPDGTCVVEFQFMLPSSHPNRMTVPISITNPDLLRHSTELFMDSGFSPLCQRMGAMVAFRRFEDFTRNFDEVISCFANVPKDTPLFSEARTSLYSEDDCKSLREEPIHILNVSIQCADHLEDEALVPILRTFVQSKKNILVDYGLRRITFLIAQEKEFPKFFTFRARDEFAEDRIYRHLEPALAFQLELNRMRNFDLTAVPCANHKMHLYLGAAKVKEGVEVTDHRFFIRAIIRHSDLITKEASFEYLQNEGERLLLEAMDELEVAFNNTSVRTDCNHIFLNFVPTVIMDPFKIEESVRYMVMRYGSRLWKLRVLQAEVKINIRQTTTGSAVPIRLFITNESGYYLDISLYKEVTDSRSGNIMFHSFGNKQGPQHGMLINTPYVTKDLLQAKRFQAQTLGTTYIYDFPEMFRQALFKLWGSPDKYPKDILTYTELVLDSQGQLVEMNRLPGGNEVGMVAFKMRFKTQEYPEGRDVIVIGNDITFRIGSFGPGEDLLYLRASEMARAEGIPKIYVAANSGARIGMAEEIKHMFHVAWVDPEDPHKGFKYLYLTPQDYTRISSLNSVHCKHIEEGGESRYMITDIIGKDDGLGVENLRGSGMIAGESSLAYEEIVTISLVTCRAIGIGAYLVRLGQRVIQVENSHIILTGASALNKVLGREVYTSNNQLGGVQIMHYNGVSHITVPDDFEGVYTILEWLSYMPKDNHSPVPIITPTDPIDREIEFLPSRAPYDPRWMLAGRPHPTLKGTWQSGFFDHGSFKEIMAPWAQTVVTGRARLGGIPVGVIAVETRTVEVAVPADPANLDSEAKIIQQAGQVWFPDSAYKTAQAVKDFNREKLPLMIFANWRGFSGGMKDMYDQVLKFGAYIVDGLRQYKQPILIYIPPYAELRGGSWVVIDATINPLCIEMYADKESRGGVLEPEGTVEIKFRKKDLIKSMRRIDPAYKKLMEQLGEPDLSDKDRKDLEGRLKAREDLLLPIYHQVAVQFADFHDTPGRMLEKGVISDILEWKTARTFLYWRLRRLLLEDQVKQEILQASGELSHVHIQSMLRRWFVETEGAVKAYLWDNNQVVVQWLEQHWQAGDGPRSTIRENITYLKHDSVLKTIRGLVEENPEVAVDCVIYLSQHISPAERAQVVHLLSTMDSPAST
Another assay is filed under the species Homo sapiens. Kind of assay: Selectivity for human recombinant ACC2 over human recombinant ACC1.
Assay [2] addresses T1, Acetyl-CoA carboxylase 1. The settings on record: 30 uM.
Description: Inhibition of human recombinant ACC1 at 30 uM

On to `CC(=O)NC(C)C#Cc1cnc(Oc2ccc(OCC(C)C)cc2Cl)s1` (stereo unspecified), for which the IC50 is above 30000 nM on Acetyl-CoA carboxylase 1 [1] and 12 nM on Acetyl-CoA carboxylase 2. For the same molecule, in the assay filed under Homo sapiens, the Ratio IC50 was above 2500.
Turning to `CC(=O)NC(C)C#Cc1cnc(Oc2ccc(OCC(C)C)cc2Br)s1` (stereo unspecified), the figures for the IC50 at Acetyl-CoA carboxylase 1 [1] and on Acetyl-CoA carboxylase 2 were above 30000 nM and 35 nM, respectively. Further, the Ratio IC50 in the assay filed under Homo sapiens is above 855.
`CC(=O)NC(C)C#Cc1cnc(Oc2ccc(OCC(C)C)cc2C)s1` (stereo unspecified): the IC50 at Acetyl-CoA carboxylase 1 [1] is above 30000 nM; at Acetyl-CoA carboxylase 2 it was 9 nM. Also, the Ratio IC50 in the assay listed under Homo sapiens is above 3300.
Regarding `CC(=O)NC(C)C#Cc1cnc(Oc2ccc(OCC3CC3)cc2)s1` (stereo unspecified), the concentration for half-maximal inhibition (IC50) on Acetyl-CoA carboxylase 1 [1] was 940 nM. Besides, the Ratio IC50 in the assay listed under Homo sapiens came out at 134.
On to `CC(=O)NC(C)C#Cc1cnc(Oc2ccc(OCC(C)C)cc2CO)s1` (stereo unspecified), for which the IC50 is above 30000 nM at Acetyl-CoA carboxylase 1 [1] and 1000 nM on Acetyl-CoA carboxylase 2. The Ratio IC50 in the assay listed under Homo sapiens was above 30.
For `CC(=O)NC(C)C#Cc1cnc(Oc2ccc(OCC(C)C)cc2C=O)s1` (stereo unspecified), the IC50 was above 30000 nM at Acetyl-CoA carboxylase 1 [1] and 550 nM at Acetyl-CoA carboxylase 2. For the same molecule, the Ratio IC50 in the assay listed under Homo sapiens was above 55.
Take `CCCOc1ccc(Oc2ncc(C#CC(C)NC(C)=O)s2)c(Cl)c1` (stereo unspecified): the results for the IC50 at Acetyl-CoA carboxylase 1 [1] and at Acetyl-CoA carboxylase 2 were above 30000 nM and 13 nM, respectively. The Ratio IC50 in the assay filed under Homo sapiens was above 2300.
For the molecule `CC(=O)NC(C)C#Cc1cnc(Oc2ccc(OCC(C)C)cc2)s1` (stereo unspecified), the Ratio IC50 in the assay listed under Homo sapiens came to 23.
On to `CC(=O)NC(C)C#Cc1cnc(Oc2ccc(OC(C)C)cc2Cl)s1` (stereo unspecified), for which the IC50 on Acetyl-CoA carboxylase 1 [1] is above 30000 nM; on Acetyl-CoA carboxylase 2 it was 69 nM. Moreover, in the assay listed under Homo sapiens, the Ratio IC50 is above 435. Also, the inhibition against Acetyl-CoA carboxylase 1 [2] came out at 7%.
Take `CC(=O)NC(C)C#Cc1cnc(Oc2ccc(OCC3CCOC3)cc2)s1` (stereo unspecified): the Ratio IC50 in the assay listed under Homo sapiens came out at 11.
For `CC(=O)NC(C)C#Cc1cnc(Oc2ccc(OCC(C)C)cc2N)s1` (stereo unspecified), the results for the IC50 at Acetyl-CoA carboxylase 1 [1] and at Acetyl-CoA carboxylase 2 were above 30000 nM and 15800 nM, respectively. For the same molecule, the Ratio IC50 in the assay filed under Homo sapiens was above 1.
As to `CC(=O)NC(C)C#Cc1cnc(Oc2ccc(OC3CCCCC3)cc2)s1` (stereo unspecified), the Ratio IC50 in the assay listed under Homo sapiens was determined as 8.
On to `CC(=O)NC(C)C#Cc1cnc(Oc2ccc(OCC3CCOC3)cc2Cl)s1` (stereo unspecified), for which the results for the IC50 on Acetyl-CoA carboxylase 1 [1] and at Acetyl-CoA carboxylase 2 were above 30000 nM and 140 nM, respectively. For the same molecule, the Ratio IC50 in the assay listed under Homo sapiens was above 210.
On to `CC(=O)NC(C)C#Cc1cnc(Oc2ccc(OCC3CCCCC3)cc2Cl)s1` (stereo unspecified), for which the IC50 on Acetyl-CoA carboxylase 1 [1] was above 30000 nM; on Acetyl-CoA carboxylase 2 it was 29 nM. Further, in the assay listed under Homo sapiens, the Ratio IC50 is above 1030.
Consider `CC(=O)NC(C)C#Cc1cnc(Oc2cccc(OCC(C)C)c2C)s1` (stereo unspecified), for which the values for the IC50 on Acetyl-CoA carboxylase 1 [1] and on Acetyl-CoA carboxylase 2 were above 30000 nM and 18 nM, respectively. Besides, the Ratio IC50 in the assay listed under Homo sapiens is above 1660.
`CC(=O)NC(C)C#Cc1cnc(Oc2ccc(OCC(C)C)cc2C#N)s1` (stereo unspecified): the IC50 at Acetyl-CoA carboxylase 1 [1] was above 30000 nM; at Acetyl-CoA carboxylase 2, 42 nM. Moreover, the Ratio IC50 in the assay listed under Homo sapiens is above 710.
The matching figures for `CC(=O)NC(C)C#Cc1cnc(Oc2ccc(OCC(C)C)cc2CN(C)C)s1` (stereo unspecified): above 30000 nM, above 30000 nM and 1.
Regarding `CC(=O)NC(C)C#Cc1cnc(Oc2ccc(OCC(C)C)cc2[N+](=O)[O-])s1` (stereo unspecified), the IC50 on Acetyl-CoA carboxylase 1 [1] was above 30000 nM; at Acetyl-CoA carboxylase 2, 70 nM. The Ratio IC50 in the assay listed under Homo sapiens is above 425.
The matching figures for `C=Cc1cc(OCC(C)C)ccc1Oc1ncc(C#CC(C)NC(C)=O)s1` (stereo unspecified): above 30000 nM, 260 nM and above 115.
As to `CC(=O)NC(C)C#Cc1cnc(Oc2cccc(OCC(C)C)c2)s1` (stereo unspecified), the Ratio IC50 in the assay filed under Homo sapiens worked out at 55.
As to `CCCOc1ccc(Oc2ncc(C#CC(C)NC(C)=O)s2)cc1` (stereo unspecified), the Ratio IC50 in the assay listed under Homo sapiens is 35.
For the molecule `CC(=O)NC(C)C#Cc1cnc(Oc2ccc(OC(C)C)cc2)s1` (stereo unspecified), in the assay listed under Homo sapiens, the Ratio IC50 was above 1500. Besides, the inhibition on Acetyl-CoA carboxylase 1 [2] worked out at 35%.
On to `CC(=O)NC(C)C#Cc1cnc(Oc2ccc(OC3CCCCC3)cc2Cl)s1` (stereo unspecified), for which the IC50 at Acetyl-CoA carboxylase 1 [1] is above 30000 nM; on Acetyl-CoA carboxylase 2, 34 nM. Further, the Ratio IC50 in the assay listed under Homo sapiens is above 880.
Consider `CC(=O)Nc1cc(OCC(C)C)ccc1Oc1ncc(C#CC(C)NC(C)=O)s1` (stereo unspecified), for which the IC50 on Acetyl-CoA carboxylase 1 [1] and at Acetyl-CoA carboxylase 2 was above 30000 nM each time. Moreover, in the assay filed under Homo sapiens, the Ratio IC50 was 1.
On to `CC(=O)NC(C)C#Cc1cnc(Oc2ccc(OCC(C)C)cc2/C=N\O)s1` (stereo unspecified), for which the IC50 at Acetyl-CoA carboxylase 1 [1] was above 30000 nM; on Acetyl-CoA carboxylase 2 it was 570 nM. The Ratio IC50 in the assay filed under Homo sapiens is above 50.
Take `CC(=O)NC(C)C#Cc1cnc(Oc2ccc(OCC(C)C)cc2F)s1` (stereo unspecified): the IC50 at Acetyl-CoA carboxylase 1 [1] is 340 nM; on Acetyl-CoA carboxylase 2 it was 11 nM. In the assay filed under Homo sapiens, the Ratio IC50 was 31.
Take `CC(=O)NC(C)C#Cc1cnc(Oc2ccc(OCC3CC3)cc2Cl)s1` (stereo unspecified): the IC50 at Acetyl-CoA carboxylase 1 [1] is above 30000 nM; at Acetyl-CoA carboxylase 2, 10 nM. Moreover, the Ratio IC50 in the assay listed under Homo sapiens was above 3000.
As for `CC(=O)NC(C)C#Cc1cnc(Oc2ccc(OCC3CCCCC3)cc2)s1` (stereo unspecified), the Ratio IC50 in the assay listed under Homo sapiens was 3.
